These results are taken from patent US5874464A, “Conformationally constrained diacylglycerol analogues” (The United States of America as represented by the …, priority 1995, dated 1999).

Read-outs that look alike come from different tables or passages of the source.

Data set [1] concerns the target T1, PK-C α (Homo sapiens, UniProt P17252).
T1 construct: made in house
In words: displacement of bound [3H-20]-phorbol-12,13-dibutyrate (PDBU) from single recombinant isozyme PK-C α. The class given is binding. The following applies: for Ki: PK-C α. The method, then:
This recombinant PK-C α was expressed in baculovirus and isolated as described by Kazanietz et al. (Mol. Pharmacol. 44: 298-307 (1993)).
The affinity of these ligands for PK-C was assessed in terms of their ability to displace bound [^3 H-20]-phorbol-12,13-dibutyrate (PDBU) from a purified product containing the single isozyme PK-C α.

In data set [2] the test system is mouse skin tumor promotion. The following applies: in vivo; cited from earlier work.
Data set [3] is described as follows: stability to racemization / acyl migration. In kind it is physicochemical. The following applies: silica or neutral alumina.
The subject of data set [4] is binding of epidermal growth factor. In words: inhibition of binding of epidermal growth factor in intact cells. In kind it is cell-based. The following applies: read-out: ED50, inhibition of binding of epidermal growth factor. The method, then: (§1) The biological activity of compound 3.8 was evaluated further. […] Finally, the ability of compound 3.8 to down-regulate PK-C α and PK-C δ in primary mouse keratinocytes after 24 hours was examined.

In another data set the test system is CD-1 mouse skin. In words: induction of acute edema or hyperplasia in CD-1 mouse skin. The class given is in vivo. As to conditions: 10-100 μg.
A further data set concerns PK-C.eta. In words: down-regulation of PK-C.eta. in primary mouse keratinocytes. The class given is cell-based. The following applies: after 24 hours.
The target of data set [5] is T2, PK-C α (Mus musculus, UniProt P20444).
T2 construct: in primary mouse keratinocytes; endogenous in cells; host or cells: primary mouse keratinocytes
In words: down-regulation of PK-C α in primary mouse keratinocytes. In kind it is cell-based. As to conditions: even after 24 h. The method, then: as §1

Data set [6] has as its target T1, PK-C α. In words: stimulation of phosphorylation of the α-pseudosubstrate peptide (activation of PK-C α). As to conditions: read-out: ED50, stimulation of phosphorylation of the α-pseudosubstrate peptide. The class given is biochemical.
In a further data set the test system is PK-Cε. In words: down-regulation of PK-Cε in primary mouse keratinocytes. In kind it is cell-based. As to conditions: after 24 hours.
Another data set deals with melanoma. The following applies: in vivo; cited from earlier work.
Where [7] appears, read: Table II, racemic and chiral compounds, read-out: Apparent Ki for ligands as inhibitors of PDBU binding to PK-C.
Setting [8] is: read-out: Ki, displacement of bound PDBU.
The mark [9] stands for this setting: Table I, read-out: Apparent Ki for ligands as inhibitors of PDBU binding to PK-C.
Setting [10] is: Table IV, read-out: Apparent Ki for chiral ligands having an α-alkylidene chain as inhibitors of PDBU binding to PK-C.

On to `CCCCCCCCCCCCCC(=O)OCC1(CO)CCC(=O)O1` (stereo not shown), for which, on PK-C α [1] (setting [7]), the Ki was 138 ± 24 nM.

For the compound `CCCCCCCCCCCCCC(=O)OCC1(CO)CCC(=O)O1` (racemic) [Compound 3e, 5-[(tetradecanoyloxy)methyl]-5-hydroxymethyl-tetrahydro-2-furanone], the Ki on PK-C α [1] (setting [8]) was determined as 138 nM.

With `CC(=O)OC12CC(C)C3(O)C(C=C(CO)CC4(O)C(=O)C(C)=CC43)C1C2(C)C` (stereo not shown) [12-deoxyphorbol-13-acetate], the “inhibition of mouse skin tumor promotion” value in [2] was 97%.

`CCCCCCCCCCCCCC(=O)OC[C@]1(CO)CCC(=O)O1` [Compound 2.2, (R)-5-[(tetradecanoyloxy)methyl]-5-(hydroxymethyl)-tetrahydro-2-furanone]: on PK-C α [1] (setting [8]), the Ki worked out at 96 nM. In data set [3], the “racemization on exposure to chromatographic conditions” value is recorded as “rapid racemization”.

`CCCCCCCC/C=C\CCCCCCC/C=C1\C[C@](/C=C/C(=O)OC)(CO)OC1=O` [Compound 3.7, (S)-5-Hydroxymethyl-5-[2-(methoxycarbonyl)ethenyl]-3-{(E)-[(Z)-9-octadecenoylidene]}tetrahydro-2-furanone]: the “binding affinity compared with the corresponding α-alkylidenes 3.9 and 3.10” value on PK-C α [1] (Table IV) was “equivalent”.

As to `CCCCCCCC/C=C\CCCCCCC/C=C1/C[C@](/C=C/C(=O)OC)(CO)OC1=O` [Compound 3.8, (S)-5-Hydroxymethyl-5-[2-(methoxycarbonyl)ethenyl]-3-{(Z)-[(Z)-9-octadecenoylidene]}tetrahydro-2-furanone], in data set [4], the IC50 amounted to 1000 nM. In addition, the “induction of acute edema” value in the data set on CD-1 mouse skin (6 h) was “did not induce acute edema”. For the same compound, the induction of hyperplasia result in the data set with CD-1 mouse skin (72 h) was “did not induce acute edema (10-100 μg, 6 h) or hyperplasia”. Besides, in the data set on PK-C.eta., the “down-regulation of PK-C.eta.” value is “did not down-regulate”. Moreover, the loss in activity result at PK-C α [5] was “No loss in activity was observed”. The “binding affinity compared with the corresponding α-alkylidenes 3.9 and 3.10” value at PK-C α [1] (Table IV) is given as “equivalent”. Further, the EC50 on PK-C α [6] stood at 163 ± 16.7 nM. In addition, in the data set on PK-Cε, the “down-regulation of PK-Cε” value is reported as “did not down-regulate”.

As for `CCCCCCCC/C=C\CCCCCCCC(=O)OCC1(CO)CCC(=O)O1` (stereo not shown) [Compound 3f, 5-{[(Z)-9-octadecenoyloxy]methyl}-5-hydroxymethyl-tetrahydro-2-furanone], the Ki at PK-C α [1] (setting [9]) came out at 96 ± 7.45 nM.

On to `CCCCCCCCCCCCCC(=O)OCC1(CO)COC(=O)C1` (stereo not shown) [Compound 9c, 4-Hydroxymethyl-4-(tetradecanoyloxy)methyl-4-vinyltetrahydro-2-furanone], for which, on PK-C α [1] (setting [9]), the Ki stood at 9810 nM.

On to `CCCCCCCCCCCCCCC1CC(CO)(COC(C)=O)OC1=O` (stereo not shown) [Compound 12, 5-(acetyloxymethyl)-5-(hydroxymethyl)-3-(tetradecanyl)-tetrahydro-2-furanone], for which the Ki on PK-C α [1] (setting [9]) came out at 75 ± 2.54 nM.

For the compound `CCCCCCCCCCCCC/C=C1\C(=O)OCC1(CO)COC(C)=O` (stereo not shown) [Compound 14c, (Z)-4-[(acetoxy)methyl]-4-hydroxymethyl-3-(tetradecanylidene)-tetrahydro-2-furanone], at PK-C α [1] (setting [9]), the Ki was found to be 6510 nM.

Consider `CCCC=CC=CC(=O)OC1C(=CC(=O)OC)CC2CC(C(C)O)OC(=O)CC(O)CC3CC(OC(C)=O)C(C)(C)C(O)(CC4CC(=CC(=O)OC)CC(C=CC(C)(C)C1(O)O2)O4)O3` (stereo not shown) [bryostatin-1], for which, in the data set with melanoma, the “results in clinical trials for treatment of melanoma” value is reported as “promising results”.

Regarding `CCCCCCCCCCCCCC(=O)OC[C@]1(CO)CCC(=O)O1` [drawing 16], the Ki at PK-C α [1] (setting [7]) is 96 ± 2.17 nM.

In the case of `CCCCCCCC/C=C\CCCCCCC/C=C1\C[C@](/C=C/C(=O)OC)(CO)OC1=O` [drawing 35], the Ki on PK-C α [1] (setting [10]) came to 20.1 ± 2.9 nM.

With `CCCCCCCC/C=C\CCCCCCC/C=C1/C[C@](/C=C/C(=O)OC)(CO)OC1=O` [drawing 36], the Ki at PK-C α [1] (setting [10]) turned out to be 11.3 ± 0.72 nM.
